Laboratory results as given in patent US8436023B2, “Cyclohexyl-azetidinyl antagonists of CCR2” (Janssen Pharmaceutica N.V., priority 2010, dated 2013).

Molecular target: T1, CCR2 (Homo sapiens, UniProt P41597)
T1 construct: host or cells: THP-1 human monocytic cells
T1 sequence (P41597 1-360 isoform P41597-2): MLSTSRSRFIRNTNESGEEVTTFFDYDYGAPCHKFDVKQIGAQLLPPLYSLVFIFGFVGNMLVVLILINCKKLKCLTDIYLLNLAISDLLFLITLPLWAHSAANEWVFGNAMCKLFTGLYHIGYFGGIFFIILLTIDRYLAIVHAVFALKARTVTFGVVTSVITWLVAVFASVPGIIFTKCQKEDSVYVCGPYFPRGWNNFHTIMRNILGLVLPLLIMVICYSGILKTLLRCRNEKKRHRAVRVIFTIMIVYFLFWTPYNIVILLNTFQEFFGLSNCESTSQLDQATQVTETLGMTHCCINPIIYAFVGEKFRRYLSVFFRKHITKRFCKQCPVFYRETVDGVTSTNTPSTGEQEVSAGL
Assay: MCP-1 Receptor Binding Assay in THP-1 Cells
Conditions: 0.5 nM 125I labeled MCP-1, 2 hours at 30° C., less polar isomer tested where stated, read-out: Inhibition of MCP-1 Binding IC50, CCR2 Binding
Summary of the method: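 Whole THP-1 cells incubated 2 h at 30 °C with 0.5 nM 125I-MCP-1 and varying concentrations of test compound; bound radioactivity counted after filter harvesting. Where no IC50 obtained, % inhibition given at 25 μM.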

Row | Compound | IC50
1 | Cc1ccc(C2(O)CCC(N3CC(NC(=O)CNc4nn(C)c5ccc(C(F)(F)F)cc45)C3)CC2)cn1 (stereo not shown) [Example 30, N-{1-[4-Hydroxy-4-(6-methyl-pyridin-3-yl)-cyclohexyl]-azetidin-3-yl}-2-(1-methyl-5-trifluoromethyl-1H-indazol-3-ylamino)-acetamide] | 0.0075 µM
2 | CCC1CCC(N2CC(NC(=O)CNc3noc4ccc(C(F)(F)F)cc34)C2)CC1 (stereo not shown) [Example 12, N-[1-(4-Ethyl-cyclohexyl)-azetidin-3-yl]-2-(5-trifluoromethyl-benzo[d]isoxazol-3-ylamino)-acetamide] | 0.39 µM
3 | NC(=O)n1nc(NCC(=O)NC2CN(C3CCC(O)(c4nccs4)CC3)C2)c2cc(C(F)(F)F)ccc21 (stereo not shown) [Example 81, 3-({[1-(4-Hydroxy-4-thiazol-2-yl-cyclohexyl)-azetidin-3-ylcarbamoyl]-methyl}-amino)-5-trifluoromethyl-indazole-1-carboxylic acid amide] | 0.029 µM
4 | Cc1ccc(C2(O)CCC(N3CC(NC(=O)CNc4nn(C)c5ccc(C(O)C(F)(F)F)cc45)C3)CC2)cn1 (stereo not shown) [Example 63, N-{1-[4-Hydroxy-4-(6-methyl-pyridin-3-yl)-cyclohexyl]-azetidin-3-yl}-2-[1-methyl-5-(2,2,2-trifluoro-1-hydroxy-ethyl)-1H-indazol-3-ylamino]-acetamide] | 3.4 µM
5 | C=CCOC1CCC(N2CC(NC(=O)CNc3nn(C)c4ccc(C(F)(F)F)cc34)C2)CC1 (stereo not shown) [Example 37, N-[1-(4-Allyloxy-cyclohexyl)-azetidin-3-yl]-2-(1-methyl-5-trifluoromethyl-1H-indazol-3-ylamino)-acetamide] | 0.136 µM
6 | N#CC1CCC(N2CC(NC(=O)CNc3n[nH]c4ccc(C(F)(F)F)cc34)C2)CC1 (stereo not shown) [Example 48, N-[1-(4-Cyano-cyclohexyl)-azetidin-3-yl]-2-(5-trifluoromethyl-1H-indazol-3-ylamino)-acetamide] | 0.43 µM
7 | Cn1nc(NCC(=O)NC2CN(C3CCC(O)(c4nccs4)CC3)C2)c2cc(OC(F)(F)F)ccc21 (stereo not shown) [Example 54, N-[1-(4-Hydroxy-4-thiazol-2-yl-cyclohexyl)-azetidin-3-yl]-2-(1-methyl-5-trifluoromethoxy-1H-indazol-3-ylamino)-acetamide] | 0.035 µM
8 | O=C(CNc1noc2ccc(C(F)(F)F)cc12)NC1CN(C2CCC(O)(c3nccs3)CC2)C1 (stereo not shown) [Example 4, N-[1-(4-Hydroxy-4-thiazol-2-yl-cyclohexyl)-azetidin-3-yl]-2-(5-trifluoromethyl-benzo[d]isoxazol-3-ylamino)-acetamide] | 0.031 µM
9 | Cc1cnc(C2(O)CCC(N3CC(NC(=O)CNc4nn(CCO)c5ccc(C(F)(F)F)cc45)C3)CC2)s1 (stereo not shown) [Example 77, 2-[1-(2-Hydroxy-ethyl)-5-trifluoromethyl-1H-indazol-3-ylamino]-N-{1-[4-hydroxy-4-(5-methyl-thiazol-2-yl)-cyclohexyl]-azetidin-3-yl}-acetamide] | 0.031 µM
10 | O=C(CNc1n[nH]c2ccc(C(F)(F)F)cc12)NC1CN(C2CCC(O)(c3cncs3)CC2)C1 (stereo not shown) [Example 42, N-[1-(4-Hydroxy-4-thiazol-5-yl-cyclohexyl)-azetidin-3-yl]-2-(5-trifluoromethyl-1H-indazol-3-ylamino)-acetamide] | 0.016 µM
11 | CC(C)NC(=O)n1nc(NCC(=O)NC2CN(C3CCC(c4ccccc4)CC3)C2)c2cc(C(F)(F)F)ccc21 (stereo not shown) [Example 90, 3-({[1-(4-Phenyl-cyclohexyl)-azetidin-3-ylcarbamoyl]-methyl}-amino)-5-trifluoromethyl-indazole-1-carboxylic acid isopropylamide] | 0.029 µM

More lines, now with the values ahead:

Row | IC50 | Compound
12 | 0.3 µM | Cn1nc(NCC(=O)NC2CN(C3CCC(C(=O)NCCO)CC3)C2)c2cc(C(F)(F)F)ccc21 (stereo not shown) [Example 40, 4-{3-[2-(1-Methyl-5-trifluoromethyl-1H-indazol-3-ylamino)-acetylamino]-azetidin-1-yl}-cyclohexane carboxylic acid (2-hydroxy-ethyl)-amide]
13 | 0.36 µM | CCOC(=O)C1CCC(N2CC(NC(=O)CNc3nn(C(=O)NC(C)(C)C)c4ccc(C(F)(F)F)cc34)C2)CC1 (stereo not shown) [Example 88, 4-{3-[2-(1-tert-Butylcarbamoyl-5-trifluoromethyl-1H-indazol-3-ylamino)-acetylamino]-azetidin-1-yl}-cyclohexanecarboxylic acid ethyl ester]
14 | 0.52 µM | N#CC1CCC(N2CC(NC(=O)CNc3nn(C(N)=O)c4ccc(C(F)(F)F)cc34)C2)CC1 (stereo not shown) [Example 87, 3-({[1-(4-Cyano-cyclohexyl)-azetidin-3-ylcarbamoyl]-methyl}-amino)-5-trifluoromethyl-indazole-1-carboxylic acid amide]
15 | 0.076 µM | Cn1nc(NCC(=O)NC2CN(C3CCC(NC(=O)OC(C)(C)C)CC3)C2)c2cc(C(F)(F)F)ccc21 (stereo not shown) [Example 31, (4-{3-[2-(1-Methyl-5-trifluoromethyl-1H-indazol-3-ylamino)-acetylamino]-azetidin-1-yl}-cyclohexyl)-carbamic acid tert-butyl ester]
16 | 1.6 µM | CC(C)NC(=O)n1nc(NCC(=O)NC2CN(C3CCC(C(C)C)CC3)C2)c2cc(C(F)(F)F)ccc21 (stereo not shown) [Example 92, 3-({[1-(4-Isopropyl-cyclohexyl)-azetidin-3-ylcarbamoyl]-methyl}-amino)-5-trifluoromethyl-indazole-1-carboxylic acid isopropylamide]
